Data published in PMC6245188, “Isolation and Characterization of Phenolic Compounds from the Leaves of Salix matsudana” (Molecules, 2008).
Read-outs that look alike come from different tables or passages of the source.

Key:
COX-2 = target: T1, COX-2 (Homo sapiens, UniProt P35354); assay: Effect on cyclooxygenase-2 (PGE2 production from 14C-arachidonic acid, HPLC radioactivity detection); type: biochemical; settings: for IC50 / IC50 of COX-2: means of three determinations, 30 min at 37 °C, Tris-HCl pH 8.0, I.A. = Inactive; for inhibitory effect on COX-2 (in words): qualitative statement
T1 construct: purchased Cayman Chemical (Michigan, US)
T1 sequence (P35354 18-604): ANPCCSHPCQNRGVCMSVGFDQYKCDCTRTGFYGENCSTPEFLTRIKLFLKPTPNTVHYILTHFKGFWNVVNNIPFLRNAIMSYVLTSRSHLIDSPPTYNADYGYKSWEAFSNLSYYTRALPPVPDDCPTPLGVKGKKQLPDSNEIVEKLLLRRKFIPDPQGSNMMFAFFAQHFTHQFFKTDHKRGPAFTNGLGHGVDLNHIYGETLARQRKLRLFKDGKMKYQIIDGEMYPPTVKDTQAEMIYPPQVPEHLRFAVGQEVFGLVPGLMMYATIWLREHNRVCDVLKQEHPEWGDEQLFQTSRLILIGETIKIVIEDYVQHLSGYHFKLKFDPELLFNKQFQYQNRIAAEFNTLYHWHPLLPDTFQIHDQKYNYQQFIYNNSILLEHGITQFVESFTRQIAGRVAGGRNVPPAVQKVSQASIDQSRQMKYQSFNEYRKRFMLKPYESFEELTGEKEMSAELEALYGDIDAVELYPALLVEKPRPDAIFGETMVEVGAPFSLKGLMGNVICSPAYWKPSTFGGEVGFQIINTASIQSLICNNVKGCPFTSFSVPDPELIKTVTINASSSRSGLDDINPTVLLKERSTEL
Procedure: (§1) COX-1 and COX-2 were purchased from Cayman Chemical (Michigan, US). The ^14C-labeled arachidonic acid (>200 µCi, NEN) was purchased from New England Nuclear Co. (Boston, US). Other chemicals and reagents were purchased from the Chinese Chemical Group (Beijing, P.R. China).
(§2) The effect of the tested compounds on cyclooxygenase-1 and -2 (COX-1 and -2) was determined by measuring PGE2 production. […] 1-^14C Arachidonic acid (10 µL) was added to start the reaction. The mixture was incubated for 30 min at 37 °C, then, the reaction was terminated by adding the reaction mixture (20 µL) to 30 µM indomethacin (200 µL). Arachidonic acid and its radio-labeled metabolites were separated and determined by reversed-phase HPLC using a Berthold radioactivity monitor. Inhibition refers to reduction of PGE2 formation, in comparison to a blank run without inhibitor. The results are means of three independent experiments.

COX-1 = target: T2, COX-1 (Ovis aries, UniProt P05979); assay: Effect on cyclooxygenase-1 (PGE2 production from 14C-arachidonic acid, HPLC radioactivity detection); type: biochemical
T2 construct: purchased Cayman Chemical (Michigan, US)
T2 sequence (P05979 25-600): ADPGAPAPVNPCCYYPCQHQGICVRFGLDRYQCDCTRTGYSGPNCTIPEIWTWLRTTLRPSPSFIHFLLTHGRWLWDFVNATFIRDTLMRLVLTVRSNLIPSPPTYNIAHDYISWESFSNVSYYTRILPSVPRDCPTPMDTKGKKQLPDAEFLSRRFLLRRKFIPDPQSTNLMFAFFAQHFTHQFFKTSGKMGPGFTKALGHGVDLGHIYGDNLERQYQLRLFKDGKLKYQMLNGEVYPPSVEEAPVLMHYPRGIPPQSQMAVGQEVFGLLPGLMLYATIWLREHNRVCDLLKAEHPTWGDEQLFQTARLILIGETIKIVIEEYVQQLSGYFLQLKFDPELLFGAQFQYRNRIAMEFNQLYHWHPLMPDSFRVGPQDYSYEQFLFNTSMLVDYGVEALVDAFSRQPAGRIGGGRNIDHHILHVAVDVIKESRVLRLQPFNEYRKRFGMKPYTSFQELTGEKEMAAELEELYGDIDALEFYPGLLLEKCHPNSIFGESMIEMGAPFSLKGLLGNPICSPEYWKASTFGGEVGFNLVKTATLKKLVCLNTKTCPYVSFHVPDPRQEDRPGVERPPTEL
Procedure: as §1, §2

[1] = means of three determinations, 30 min at 37 °C, Tris-HCl pH 8.0, I.A. = Inactive, read-out: IC50 of COX-1
[2] = means of three determinations, 30 min at 37 °C, Tris-HCl pH 8.0, I.A. = Inactive

| IC50 (COX-2) | inhibitory effect on COX-2 (in words) (COX-2) | IC50 (COX-1; [1]) | IC50 of COX-2 (COX-2) | IC50 (COX-1) | Compound | IC50 of COX-1 (COX-1; [2]) |
| --- | --- | --- | --- | --- | --- | --- |
| 27.3 µM | potent inhibitory effect | 153 µM | – | – | CC1(C)C=Cc2c(cc(O)c3c(=O)c(OC4OC(CO)C(O)C(O)C4O)c(-c4ccc(O)c(O)c4)oc23)O1 [Compound 1, 7,8-(2'', 2''-dimethylpyrano)-5, 3', 4'-trihydroxy-flavone-3-O-β-D-glucoside] | – |
| – | – | – | I.A. | – | O=c1cc(-c2ccc(O)c(O)c2)oc2cc(O)cc(O)c12 [Compound 2, luteolin] | I.A.^b |
| – | – | – | – | 103 µM | O=c1c(O[C@@H]2O[C@H](CO)[C@@H](O)[C@H](O)[C@H]2O)c(-c2ccc(O)c(O)c2)oc2cc(O)cc(O)c12 [Compound 3, isoquercitrin] | – |
| 169 µM | – | 99.1 µM | – | – | COc1ccc2c(=O)cc(-c3ccccc3)oc2c1 [Compound 4, 7-methoxyflavone] | – |
| 39.1 µM | potent inhibitory effect | 92.3 µM | – | – | O=c1cc(-c2ccc(O)c(O)c2)oc2cc(O[C@@H]3O[C@H](CO)[C@@H](O)[C@H](O)[C@H]3O)cc(O)c12 [Compound 5, luteolin 7-O-glucoside] | – |
| 200 µM | – | 195 µM | – | – | COc1cc(O)cc(OC)c1OC1OC(CO)C(O)C(O)C1O (stereo not drawn) [Compound 7, leonuriside A] | – |
| – | – | 217 µM | I.A. | – | CC(=O)c1ccc(OC2OC(CO)C(O)C(O)C2O)cc1 (stereo not drawn) [Compound 8, piceoside] | – |

| Compound | IC50 (COX-2) | inhibitory effect on COX-2 (in words) (COX-2) | IC50 (COX-1; [1]) | IC50 of COX-2 (COX-2) | IC50 (COX-1) | IC50 of COX-1 (COX-1; [2]) |
| --- | --- | --- | --- | --- | --- | --- |
| O=c1cc(-c2ccc(O)cc2)oc2cc(O)ccc12 [Compound 6, 4',7-dihydroxyflavone] | 58.8 µM | potent inhibitory effect | – | – | – | I.A. |
